Laboratory results taken from patent US7700644B2, “Isoflavonoid dimers” (Novogen Research Pty Ltd, priority 2005, dated 2010).

Experiments:
TXB2 = TXB2 in murine macrophages (RAW 264.7) stimulated with LPS; assay type: cell-based, mouse; details: RAW 264.7, LPS 50 ng/ml, 16 hrs, dose responsive
Procedure: (§1) The mouse macrophage cell line RAW 264.7 was cultured in DMEM supplemented with FCS, 2 mM glutamine and 50 U/ml penicillin/streptomycin. Subconfluent cells were detached from the flask by gentle scraping and 24-well plates seeded at 5×10^5 cells per well and allowed to adhere for 1 hr. Cells were then treated either test compounds (in 0.025% DMSO) or vehicle alone, and incubated for 1 hr. LPS 50 ng/ml (LPS —Sigma-Aldrich) was then added. After incubation for 16 hrs, culture media was collected and stored at −80° C. for ecosanoid and cytokine measurements using enzyme immunometric assays (PGE2 and TXB2—Cayman Chemical and TNFα—Becton Dickinson).

PGE2 = PGE2 in murine macrophages (RAW 264.7) stimulated with LPS; assay type: cell-based, mouse; details: RAW 264.7, LPS 50 ng/ml, 16 hrs, dose responsive
Procedure: as §1

unstimulated splenocytes = experiment: Murine splenocytes, 24 hour pre-incubation with compound then mitogenic stimulation; assay type: cell-based, Male Skh-1 (hairless) mice; details: 10 μM
Procedure: (§2) Male Skh-1 (hairless) mice, six weeks old were killed by cervical dislocation. Single cell suspensions were made from their spleens and erythrocytes were lysed in buffer (0.14M NH4Cl, 17 mM Tris, pH 7.2). The remaining splenocytes were cultured in RPMI-1640 (Gibco) supplemented with 10% (v:v) FBS, 200 mM L-glutamine, penicillin/streptomycin and […] 2-mercaptoethanol. Splenocytes were added to triplicate wells containing either concanavalin A (ConA, Sigma-Aldrich—0.4 μg/well), lipopolysaccharide (LPS, Sigma-Aldrich—1 μg/well) or no mitogen, as well as 10 μM of either Compound 1 or Compound 2 in DMSO, or DMSO alone. Samples were analysed after a 3 day incubation at 37° C. in 5% CO2 in air. To assess cell numbers, methylthiazoletetrazolium (MTT) was added to each well, incubated for a further 4 hrs and then colour developed with 0.04N HCl in isopropanol (Mosmann 1983). Plates were read at 570 nm and 630 nm. The compounds were examined several times using different mice. For each assay, the effect of test compound was compared with that of vehicle control, and the results compared using a student's t test (Prism). Statistically significant difference was determined to have occurred when p<0.05.
Another assay examined the effect pre-incubating unstimulated splenocytes with test compounds at 10 μM for 24 hours, removing the compounds and then assessing their ability to respond to mitogenic stimulation as described for the previous assay. Cell numbers were assessed after the 24 hr pre-incubation using MTT, and equal numbers of cells/well plated into 96 well plates as usual.

splenocytes = experiment: Murine splenocyte proliferation with mitogens (MTT), 3 day incubation with compound; assay type: cell-based, Male Skh-1 (hairless) mice
Procedure: as §2, with “Splenocytes were added to triplicate wells containing either concanavalin A (ConA, Sigma-Aldrich—0.4 μg/well), lipopolysaccharide (LPS, Sigma-Aldrich—1 μg/well) or no mitogen, as well as 10 μM of either Compound 1 or Compound 2 in DMSO, or DMSO alone.” left out

[1] = tested on: UV irradiation-induced skin oedema; experiment: Murine model of UV irradiation-induced skin oedema; assay type: in vivo, female Skh:hr-1 albino mice; details: for Change in skin thickness (mean ± SD, ×0.01 mm): dorsal skin fold, topical 0.2 ml of 20 μM at 30 min, 2 h, 4 h
From the text: Groups of 4-5 female Skh:hr-1 albino mice were irradiated with 1×3 MEdD (minimal edematous dose) of solar simulated UV radiation (SSUV). Solar-simulated ultraviolet radiation (SSUV) was provided by a planar bank of 6 UVA tube (Hitachi 40W F40T 10/BL, black light) and one UVB tube (Philips TL 40W/12RS) with radiation filtered through a sheet of 0.125 mm cellulose acetate (Eastman Chemical Products, Kingport, Tenn., USA) to give 2.96×10-4W/cm2 UVA and 1.59×10-5W/cm2 UVB. The distance of the UV lamp from the irradiance table surface was approximately 20 cm and temperature was controlled with an electric fan. During irradiation, the cages were rotated below the lights to reduce the variation in radiation intensity in different positions.
Either test compound (0.2 ml of a 20 μM solution) or vehicle (propylene glycol/ethanol/water 1:2:1) was applied to the irradiated dorsal skin at 30 min, 2 h and 4 h post-irradiation. Dorsal skin fold measurements were made with a spring micrometer prior to and at 24 hr and 48 h post-UV exposure. The difference in skin thickness pre- and post-exposure to UVR was calculated for each mouse, and the differences examined between test compound and vehicle control were analysed using an unpaired two-tailed t test.

TNFα synthesis = TNFα synthesis in human monocytes incubated with LPS; assay type: cell-based; details: LPS 200 ng/mL, 18 hrs
Procedure: (§3) Human peripheral blood monocytes (from three separate individuals) were isolated from buffy coats by lymphoprep gradient separation of mononuclear cells followed by counter-current centrifugal elutriation (Demasi et al. 2000). The test compounds were dissolved in DMSO and added to fresh monocytes After 30 min, LPS was added to achieve a final concentration of 200 ng/mL. After incubation for 18 hrs at 37° C. in 5% CO2, supernatants were removed and PGE2, TXB2 (the stable hydrolysis product of TXA2) and TNFα production were measured by radioimmunoassay (RIA).

PGE2 synthesis = PGE2 synthesis in human monocytes incubated with LPS; assay type: cell-based; details: LPS 200 ng/mL, 18 hrs, dose responsive
Procedure: as §3

TXB2 synthesis = TXB2 synthesis in human monocytes incubated with LPS; assay type: cell-based; details: LPS 200 ng/mL, 18 hrs, dose responsive
Procedure: as §3

HT-29 (Colorectal) = experiment: In vitro cytotoxicity, MTT proliferation assay, HT-29; assay type: cell-based, human; details: Colorectal HT-29
Procedure: (§4) The human pancreatic cancer cell line, HPAC (CRL-2119) was routinely cultured in 1:1 mixture DMEM (Sigma) plus Ham's F12 (Sigma) medium containing HEPES (15 mM), insulin (0.002 mg/ml), transferrin (0.005 mg/ml), hydrocortisone, (40 ng/ml), epidermal growth factor (10 ng/ml). The ovarian cancer cell line CP70 was obtained as a gift from Dr. Gil Mor (Yale University) and cultured in a 1:1 mixture DMEM plus Ham's F12 medium, and SKOV-3 was purchased from ATCC and cultured in McCoy's 5a medium. The breast cancer cell line MDA-MB-468 cultured in Leibovitz's L-15 medium.
(§5) All cultures were supplemented with 10% FCS(CSL, Australia), penicillin (100 U/ml), streptomycin ([…]), L-glutamine (2 mM) and sodium bicarbonate (1.2 g/L), and cultured at 37° C. in a humidified atmosphere of 5% CO2. All remaining cell lines were purchased from ATCC (Maryland, USA) except where noted.
(§6) IC50 values were determined for each cell line. Cells were seeded in 96-well plates at an appropriate cell density as determined from growth kinetics analysis. NFFs were cultured for 5 days and RK-13s for 24 hrs in the absence and presence of the test compounds. Cell proliferation was assessed after the addition of 20 μl of 3-4,5 dimethylthiazol-2,5-diphenyl tetrazolium bromide (MTT, 2.5 mg/ml in PBS, Sigma) for 3-4 hrs at 37° C. according to manufacturer's instructions. IC50 values were calculated from semi-log plots of % of control proliferation on the y-axis against log dose on the x-axis.

HCT-15 (Colorectal) = experiment: In vitro cytotoxicity, MTT proliferation assay, HCT-15; assay type: cell-based, human; details: Colorectal HCT-15
Procedure: as §4, §5, §6

[2] = tested on: human pancreatic cancer cell line, HPAC (CRL-2119); experiment: In vitro cytotoxicity, MTT proliferation assay, CRL-2119; assay type: cell-based; details: Pancreatic CRL-2119
Procedure: as §4, §5, §6

[3] = tested on: Neonatal foreskin fibroblasts (NFF); experiment: Normal cell toxicity, MTT proliferation assay, NFF; assay type: cell-based, human; details: NFF fibroblast, cultured 5 days, MTT
Procedure: Neonatal foreskin fibroblasts (NFF) were a gift from Dr. Peter Parsons (Queensland Institute of Medical Research). RK-13 (rabbit kidney) cells were obtained from Miller Whalley (Macquarie University). Both cell types were cultured in RPMI supplemented with 10% FCS (CSL, Australia), penicillin (100 U/ml), streptomycin ([…]), L-glutamine (2 mM) and sodium bicarbonate (1.2 g/L), and cultured at 37° C. in a humidified atmosphere of 5% CO2.
as §6
Duplicate cytotoxicity assays against NFF cells were conducted with dehydroequol (DHE), 4,9-dihydroxy-14,15-dimethoxy-12a-(3′,4′-dimethoxyphenyl)-3,10-dimethyl-2,11-dioxa-(1H,12H)-6b,6c,12a,16b-tetrahydronaphtho[1,2-g]chrysene (2) from Example 6.1 and cisplatin.

NCI-H460 (Lung) = experiment: In vitro cytotoxicity, MTT proliferation assay, NCI-H460; assay type: cell-based, human
Procedure: as §4, §5, §6

A2780 (Ovarian) = experiment: In vitro cytotoxicity, MTT proliferation assay, A2780; assay type: cell-based, human
Procedure: as §4, §5, §6

MM96L (Melanoma) = experiment: In vitro cytotoxicity, MTT proliferation assay, MM96L; assay type: cell-based, human
Procedure: as §4, §5, §6

PC3 (Prostate) = experiment: In vitro cytotoxicity, MTT proliferation assay, PC3; assay type: cell-based, human
Procedure: as §4, §5, §6

MCF-7 (Breast) = experiment: In vitro cytotoxicity, MTT proliferation assay, MCF-7; assay type: cell-based, human; details: Breast MCF-7
Procedure: as §4, §5, §6

LNCaP (Prostate) = experiment: In vitro cytotoxicity, MTT proliferation assay, LNCaP; assay type: cell-based, human
Procedure: as §4, §5, §6

HTB-138 (Glioma) = experiment: In vitro cytotoxicity, MTT proliferation assay, HTB-138; assay type: cell-based, human; details: Glioma HTB-138
Procedure: as §4, §5, §6

[4] = tested on: breast cancer cell line MDA-MB-468; experiment: In vitro cytotoxicity, MTT proliferation assay, MDA-MB-468; assay type: cell-based, human; details: Breast MDA-MB-468
Procedure: as §4, §5, §6

MM200 (Melanoma) = experiment: In vitro cytotoxicity, MTT proliferation assay, MM200; assay type: cell-based, human
Procedure: as §4, §5, §6

DU145 (Prostate) = experiment: In vitro cytotoxicity, MTT proliferation assay, DU145; assay type: cell-based, human
Procedure: as §4, §5, §6

[5] = tested on: ovarian cancer cell line CP70; experiment: In vitro cytotoxicity, MTT proliferation assay, CP70; assay type: cell-based, human
Procedure: as §4, §5, §6

SKOV-3 (Ovarian) = experiment: In vitro cytotoxicity, MTT proliferation assay, SKOV-3; assay type: cell-based, human; details: Ovarian SKOV-3
Procedure: as §4, §5, §6

COc1ccc(C23COc4cc(O)ccc4C2C2c4ccc(O)cc4OCC2c2cc(OC)c(OC)cc23)cc1OC (stereo not shown) [Cpd. 1, 4,9-Dihydroxy-14,15-dimethoxy-12a-(3′,4′-dimethoxyphenyl)-2,11-dioxa-(1H,12H)-6b,6c,12a,16b-tetrahydronaphtho[1,2-g]chrysene]
effect on TXB2 (TXB2): inhibited
effect on PGE2 (PGE2): induced
Splenocyte viability following three days' culture in the absence of mitogen (unstimulated splenocytes): not affected
reduction in cell numbers compared with vehicle alone (unstimulated splenocytes): 73%
proliferative response to ConA after pre-incubation (unstimulated splenocytes; compound removed): no effect
effect on B cell proliferation (splenocytes; 10 μM, LPS, 3 day incubation): no effect
enhancement of proliferation of unstimulated splenocytes (splenocytes; 10 μM, no mitogen, significant in 5/6 assays): 25-33%
inhibition at 10 µM (splenocytes; Mus musculus, Splenocyte, 72 h, 10 μM, ConA, 3 day incubation, significant in 4/6 assays, read-out: inhibition of T cell proliferation): 14 to 19%
proliferation compared with vehicle control (splenocytes; higher concentrations (than 10 μM), regardless of mitogenic stimulation): reduced proliferation
inhibition of skin oedema ([1]; 24 hrs post-irradiation): significantly inhibited
Change in skin thickness (mean ± SD, ×0.01 mm) ([1]; 24 hrs post-irradiation, vehicle 78 ± 23): 51 ± 14 ×0.01 mm
Change in skin thickness (mean ± SD, ×0.01 mm) ([1]; 48 hrs post-irradiation, vehicle 147 ± 37): 117 ± 20 ×0.01 mm
effect on induction of TNFα (TNFα synthesis): inhibited
effect on PGE2 synthesis (PGE2 synthesis): induced
effect on TXB2 synthesis (TXB2 synthesis): inhibited

N.N.[Cl][Pt][Cl] [Cisplatin, cis-diamminedichloroplatinum]
IC50 (HT-29 (Colorectal)): 22.7 ± 35 µM
IC50 (HCT-15 (Colorectal)): 130 ± 39 µM
IC50 [2]: 9.36 µM
IC50 [3]: 9.85 ± 5 µM
IC50 (NCI-H460 (Lung)): 22.3 µM
IC50 (A2780 (Ovarian)): 2100 nM
IC50 (MM96L (Melanoma)): 4.6 µM
IC50 (PC3 (Prostate)): 2110 nM
IC50 (MCF-7 (Breast)): 3.69 µM
IC50 (LNCaP (Prostate)): > 10 µM
IC50 (HTB-138 (Glioma)): 42.3 µM
IC50 [4]: 580 nM
IC50 (MM200 (Melanoma)): 8.82 µM
IC50 (DU145 (Prostate)): 2070 nM
IC50 [5]: 10.3 µM
IC50 (SKOV-3 (Ovarian)): 5.4 µM
